Test results: publication PMC4138103 (PLoS ONE, 2014)

Key:
Type in all cases: in vivo, Rattus norvegicus
Sprague-Dawley rats = assay: Brain amino acid analyses; set-up: key to Glutathione, trend over total doses: D: significant dose response (for results, see Table 2); T: significant trend
Procedure: The right hemisphere of cerebrum was rapidly weighed and homogenized in ice cold 7% HClO4 [35] using a glass/teflon Potter-Elvehjem homogenizer (Schwaben Prazision Nordlingen type L43). α-Amino adipic acid was used as internal standard. Samples were neutralized to pH 6.5–7.5 with ice cold KOH/HCl and centrifuged for 20 min at 20 000 g and 4°C in a Sorvall RMC-14-micro centrifuge. Pellets were frozen at −40°C for later protein determination by the BCA-assay. Supernatants were stored at −40°C, filtered with Nylon-66 micro filters (mesh 0.22 µm; Nalgene) prior to HPLC analysis.
Total amino acids in extracts were analyzed, using a reversed-phase HPLC (ChromSpher 5 C18 column; length 25 cm, inner diameter 4.6 mm; Varian) fitted with a fluorescence detector (Shimadzu, Kyoto, Japan), after derivatization with o-phthaldialdehyde (OPA; Sigma). […] Each sample was eluted for 45 min with a flow rate of 0.4 ml/min. A mixture of the amino acids of interest was run as external standards at 100 µM. L-Amino acid standards for aspartic acid, glutamic acid, serine, glutamine, glycine and alanine] were obtained from Pierce (Rockford, Ill., USA), whereas taurine, γ-amino butyric acid, glutathione and α-amino adipic acid standards were from Sigma-Aldrich. Chromatograms were analyzed using the software Lab Solutions (Shimadzu).

[1] = system: Nicotinic receptor subunits α4 and β2; assay: Brain [3H]epibatidin binding in exposed rats; conditions: males
Procedure: (§1) The membrane containing pellet was homogenized in 15 volumes of 50 mM Tris-HCl buffer at pH 7.4, incubated at 25°C for 30 min, and centrifuged again at 100 000 g. The pellet from the second centrifugation was dissolved in 4 ml 0.32 M sucrose/g brain (v/w), with a final protein concentration of […] and frozen at −40°C.
Nicotinic receptor subunits α4 and β2 were analyzed as above with the following modifications: 8 µl (0.1 mg protein) of the same membrane preparation was incubated with 415–472 µl buffer (50 mM tris-HCL, pH 7.4), 0.1–1 nM [^3H]epibatidin and 0.1 mM (-)nicotine for measuring unspecific binding, to a final volume of 500 µl. […] The samples were incubated with [^3H]epibatidin for 1 h followed by vacuum filtration and scintillation counting.
Samples were vacuum filtrated trough Whatman glassfiber-filters (type GF/B, 25 mm) and washed 3×3 ml ice-cold incubation buffer. To reduce unspecific binding, the filters where pre-wetted in 1% polyetylenimine for 60 min. The filters were placed into a filtration bucket and coupled to a mechanical vacuum pump. After filtration the bucket was disassembled and the filters transferred into plastic tubes and 4 ml filtercount fluid was added. Radioactive binding was measured as disintegration per minute (DPM1) in a scintillation counter (Tri-Carb 3100TR, Perkin Elmer). The analyses were carried out in duplicates

[2] = system: Dopamine receptors D1 and D5; assay: Brain [3H]SCH23390 binding in exposed rats; conditions: males
Procedure: as §1
Dopamine receptors D1 and D5 were analyzed as described before, [39]. In brief, 50 µl (0.7 mg protein) of the membrane preparation was incubated with 124–132 µl buffer (50 mM tris-HCL, 120 mM NaCl, 5 mM KCl, 2,5 mM CaCl2 and 1 mM MgCl2, pH 7.4) and 100 nM ketanserine (Tocris Bioscience, Bristol, UK; to block binding of SCH23390 to the 5-HT receptor) to a final volume of 200 µl. For measuring unspecific binding […] SCH23390 was added to the same mixture. Finally, 1 nM [^3H]SCH23390 was added to all samples to measure binding of the receptors or unspecific binding. The samples were incubated for 30 min at 25°C followed by vacuum filtration and scintillation counting.
Samples were vacuum filtrated trough Whatman glassfiber-filters (type GF/B, 25 mm) and washed 3×3 ml ice-cold incubation buffer. To reduce unspecific binding, the filters where pre-wetted in 1% polyetylenimine for 60 min. […] Radioactive binding was measured as disintegration per minute (DPM1) in a scintillation counter (Tri-Carb 3100TR, Perkin Elmer). […]

[3] = brain, females, total dose 10 mg/kg bw, n 1
[4] = brain, females, total dose 30 mg/kg bw
[5] = brain, females, total dose 300 mg/kg bw
[6] = brain, females, total dose 1000 mg/kg bw
[7] = brain, males, total dose 10 mg/kg bw
[8] = brain, males, total dose 30 mg/kg bw
[9] = brain, males, total dose 300 mg/kg bw
[10] = brain, males, total dose 1000 mg/kg bw
[11] = total dose 1000 mg/kg bw, group mean

Clc1cc(Cl)c(-c2cc(Cl)c(Cl)c(Cl)c2Cl)cc1Cl [PCB 180, 2,2′,3′,4,4′,5,5′-heptachlorobiphenyl]
Amino acid concentration in cerebrum vs controls (Sprague-Dawley rats; both genders, 10, 30, 300 or 1000 mg/kg bw): did not show significant differences
Alanine (Sprague-Dawley rats; [3]): 14.25 nmol/mg protein
Aspartate (Sprague-Dawley rats; [3]): 71.05 nmol/mg protein
Glutamate (Sprague-Dawley rats; [3]): 124 nmol/mg protein
Glutamine (Sprague-Dawley rats; [3]): 85.95 nmol/mg protein
Glutathione (Sprague-Dawley rats; [3]): 16.96 nmol/mg protein
Glycine (Sprague-Dawley rats; [3]): 43.99 nmol/mg protein
Serine (Sprague-Dawley rats; [3]): 17.81 nmol/mg protein
Taurine (Sprague-Dawley rats; [3]): 113.1 nmol/mg protein
γ-Amino butyric acid (Sprague-Dawley rats; [3]): 42.71 nmol/mg protein
Alanine (Sprague-Dawley rats; [4]): 12.67 nmol/mg protein
Aspartate (Sprague-Dawley rats; [4]): 60.52 nmol/mg protein
Glutamate (Sprague-Dawley rats; [4]): 110 nmol/mg protein
Glutamine (Sprague-Dawley rats; [4]): 82.24 nmol/mg protein
Glutathione (Sprague-Dawley rats; [4]): 12.19 nmol/mg protein
Glycine (Sprague-Dawley rats; [4]): 43.93 nmol/mg protein
Serine (Sprague-Dawley rats; [4]): 17.02 nmol/mg protein
Taurine (Sprague-Dawley rats; [4]): 98.12 nmol/mg protein
γ-Amino butyric acid (Sprague-Dawley rats; [4]): 40.16 nmol/mg protein
Alanine (Sprague-Dawley rats; [5]): 13.51 nmol/mg protein
Aspartate (Sprague-Dawley rats; [5]): 61.77 nmol/mg protein
Glutamate (Sprague-Dawley rats; [5]): 111 nmol/mg protein
Glutamine (Sprague-Dawley rats; [5]): 87.85 nmol/mg protein
Glutathione (Sprague-Dawley rats; [5]): 11.70 nmol/mg protein
Glycine (Sprague-Dawley rats; [5]): 48.50 nmol/mg protein
Serine (Sprague-Dawley rats; [5]): 17.18 nmol/mg protein
Taurine (Sprague-Dawley rats; [5]): 95.21 nmol/mg protein
γ-Amino butyric acid (Sprague-Dawley rats; [5]): 41.47 nmol/mg protein
Alanine (Sprague-Dawley rats; [6]): 13.04 nmol/mg protein
Aspartate (Sprague-Dawley rats; [6]): 59.40 nmol/mg protein
Glutamate (Sprague-Dawley rats; [6]): 109 nmol/mg protein
Glutamine (Sprague-Dawley rats; [6]): 79.65 nmol/mg protein
Glutathione (Sprague-Dawley rats; [6]): 10.79 nmol/mg protein
Glycine (Sprague-Dawley rats; [6]): 43.12 nmol/mg protein
Serine (Sprague-Dawley rats; [6]): 16.71 nmol/mg protein
Taurine (Sprague-Dawley rats; [6]): 97.62 nmol/mg protein
γ-Amino butyric acid (Sprague-Dawley rats; [6]): 40.90 nmol/mg protein
Alanine (Sprague-Dawley rats; [7]): 11.68 nmol/mg protein
Aspartate (Sprague-Dawley rats; [7]): 59.00 nmol/mg protein
Glutamate (Sprague-Dawley rats; [7]): 110 nmol/mg protein
Glutamine (Sprague-Dawley rats; [7]): 81.50 nmol/mg protein
Glutathione (Sprague-Dawley rats; [7]): 12.48 nmol/mg protein
Glycine (Sprague-Dawley rats; [7]): 38.78 nmol/mg protein
Serine (Sprague-Dawley rats; [7]): 17.39 nmol/mg protein
Taurine (Sprague-Dawley rats; [7]): 93.04 nmol/mg protein
γ-Amino butyric acid (Sprague-Dawley rats; [7]): 36.29 nmol/mg protein
Alanine (Sprague-Dawley rats; [8]): 12.16 nmol/mg protein
Aspartate (Sprague-Dawley rats; [8]): 60.01 nmol/mg protein
Glutamate (Sprague-Dawley rats; [8]): 106 nmol/mg protein
Glutamine (Sprague-Dawley rats; [8]): 68.58 nmol/mg protein
Glutathione (Sprague-Dawley rats; [8]): 11.48 nmol/mg protein
Glycine (Sprague-Dawley rats; [8]): 38.07 nmol/mg protein
Serine (Sprague-Dawley rats; [8]): 16.11 nmol/mg protein
Taurine (Sprague-Dawley rats; [8]): 93.22 nmol/mg protein
γ-Amino butyric acid (Sprague-Dawley rats; [8]): 36.82 nmol/mg protein
Alanine (Sprague-Dawley rats; [9]): 13.02 nmol/mg protein
Aspartate (Sprague-Dawley rats; [9]): 58.39 nmol/mg protein
Glutamate (Sprague-Dawley rats; [9]): 111 nmol/mg protein
Glutamine (Sprague-Dawley rats; [9]): 76.57 nmol/mg protein
Glutathione (Sprague-Dawley rats; [9]): 10.37 nmol/mg protein
Glycine (Sprague-Dawley rats; [9]): 39.90 nmol/mg protein
Serine (Sprague-Dawley rats; [9]): 17.20 nmol/mg protein
Taurine (Sprague-Dawley rats; [9]): 95.86 nmol/mg protein
γ-Amino butyric acid (Sprague-Dawley rats; [9]): 36.14 nmol/mg protein
Alanine (Sprague-Dawley rats; [10]): 12.29 nmol/mg protein
Aspartate (Sprague-Dawley rats; [10]): 54.56 nmol/mg protein
Glutamate (Sprague-Dawley rats; [10]): 103 nmol/mg protein
Glutamine (Sprague-Dawley rats; [10]): 72.52 nmol/mg protein
Glutathione (Sprague-Dawley rats; [10]): 9.97 nmol/mg protein
Glycine (Sprague-Dawley rats; [10]): 40.40 nmol/mg protein
Serine (Sprague-Dawley rats; [10]): 16.45 nmol/mg protein
Taurine (Sprague-Dawley rats; [10]): 88.63 nmol/mg protein
γ-Amino butyric acid (Sprague-Dawley rats; [10]): 35.69 nmol/mg protein
Glutathione, trend over total doses (Sprague-Dawley rats; brain, males, total doses 0-1000 mg/kg bw): T
Cerebrum glutathione concentration, max. decrease (Sprague-Dawley rats; males, at 1000 mg/kg): 18%
Specific binding of [3H]epibatidin to high or low affinity sites of nicotinic receptor subunit α4/β2 vs controls ([1]; 1000 mg/kg bw): no significant difference
High affinity nicotinic receptor binding (α4/β2) [1, 11]: 656 DPM1
Low affinity nicotinic receptor binding (α4/β2) [1, 11]: 1492 DPM1
Specific [3H]SCH23390 binding to D1/D5 dopamine receptors in cerebrum vs controls ([2]; 1000 mg/kg bw): No significant differences
Dopamine D1/D5 receptor binding [2, 11]: 1075 DPM1
